The results in this text go back to patent publication US12459914B2, “Compounds and compositions for the treatment of tumors” (FONDAZIONE ISTITUTO ITALIANO DI TECNOLOGIA, priority 2019, dated 2025).

One assay deals with BxPC-3 cells. Briefly: Cell viability assay (CellTiter Glo). Format: cell-based. As to conditions: Homo sapiens, 72 h. (In general: Cellular ATP, detected with luciferase, serves as a proxy for viable cell number.)
The subject of assay [1] is Homologous recombination (HR) in BxPC3 cells. Briefly: Homologous recombination assay (HR). As to conditions: Homo sapiens, BXPC-3, read-out: HR inhibition: IC50. Format: cell-based. How it is done: Homologous recombination (HR) was assessed by using a commercially available assay (Norgen). This assay is based on cell co-transfection with two plasmids that, upon cells entering, recombinate. The efficiency of HR can be assessed by real time PCR, using primer mixtures included in the assay kit. Different primer mixtures allow differentiation between the original plasmid backbones and their recombination product.
BxPC3 cells (2×10^3 per well) were seeded in a 24-well plate and allowed to adhere overnight. Co-transfection with the two plasmids was performed in Lipofectamine 2000 (Invitrogen) for 5 h, according to the manufacturer's instructions. During transfection cells were exposed at different doses of BRCA2-Rad51 disruptors, dissolved in RPMI without serum in the presence of 0.6% DMSO.
After washing with PBS, cells were harvested, and DNA was isolated using QIAamp® DNA Mini Kit (Qiagen). Sample concentration was measured using an ONDA Nano Genius photometer.
The thermal cycler (CFX96 ™ Real Time System, BioRad) was programmed as follows: initial denaturation 95° C. for 3 min then 95° C. for 15 sec., 61° C. for 30 sec., 72° C. for 1 min and repeated for 40 cycles. Melt curve analysis was done. Samples were run in triplicate, in 10 μl reaction volume containing 25 ng of template.
In each DNA sample from control and treated cultures, the ΔCt between the recombination product and the backbone plasmids was calculated. HR efficiency was evaluated from the 2^−ΔΔ^Ct value obtained by comparing treated vs control samples.

Structures are written as SMILES.

Turning to `CCC(=O)N1N=C(c2c(-c3ccccc3)c3cc(Cl)ccc3[nH]c2=O)CC1c1ccc(OC)cc1` (centres unmarked) [d.12, 6-chloro-3-[3-(4-methoxyphenyl)-2-propanoyl-3,4-dihydropyrazol-5-yl]-4-phenyl-1H-quinolin-2-one], the concentration for a half-maximal effect (EC50) – broadly, the concentration at which the effect is half-maximal – with BxPC-3 cells turned out to be 19 µM. Besides, the IC50 (usually the concentration at which inhibition is half-maximal) in assay [1] was 18.4 µM.
